Results taken from US5182276A, “Nootropic agent” (Santen Pharmaceutical Co., Ltd., priority 1989, dated 1993).
Where a name gives a salt, the structure may show the parent alone.

What was measured:
[1] = Test of Hypoxia-Inhibiting Effect (survival time under nitrogen gas); type: in vivo, ICR mice; settings: 100 mg/kg oral
Method: In this test, groups (9 to 10 mice each) of ICR mice were employed. The compound to be tested was suspended in a 0.5% aqueous methyl cellulose solution and was orally administered. 60 Minutes after the administration,each mouse was placed in a transparent container (volume 500m μ) having an exhaust hole and N, gas was supplied to the container at a rate of 5μ/min. The time (survival time in sec.) ,elapsed from the initiation of the nitrogen gas supply until the cessation of breathing of each mouse was determined. As the compounds to be tested, there was used (+)-3,4-dihydro-2-(5-methoxy-2- (3-(N-methyl-N-[2-[(3,4]propoxy]phenyl]-4-methyl-3-oxo-2H-1,4-benzothiazine fumarate (hereinafter referred to as "Compound A") which is a representative compound of the present invention. The results obtained are listed in the following Table 1.

[2] = tested on: cerebral ischemia / energy metabolic substances in the brain; assay: Test of Cerebral Energy Metabolism (bilateral common carotid artery ligation, SHR); type: in vivo, male SHR's (rat); settings: for Hippocampus E.C. (energy charge): **: P < 0.01 vs. Pathema Control (0.628 ± 0.026); for Cerebral Cortex E.C. (energy charge): **: P < 0.01 vs. Pathema Control (0.631 ± 0.0243); for Striatum E.C. (energy charge): **: P < 0.01 vs. Pathema Control (0.679 ± 0.032)
Method: 24-Week-old male SHR's were fixed on the back thereof under with 1.5% halothane anesthetic (70% N,O, 30% O2) and the neck thereof was subjected to a median incision. The cerebral ischemia was caused by immediately ligating bilateral common carotid artery with a silk fiber just before the recovery from the anesthetic state. 3.5 Hours after the ligation, the animals were sacrificed by irradiating them with microwaves (5 KW, 1.5 second). The brain tissues were collected and divided into cerebral cortex, hippocampus and striatum. The brain tissues were homogenized in a 0.6N aqueous perchloric acid solution and centrifuged at 3,000 rpm for 20 minutes. The resulting supernatant was used as the sample for detecting the energy metabolic substances. In the measurement, ATP-Uv test (available from Sigma Co., Ltd.) was used as ATP and lactate-UV test (available from Boeringer Mannheim Yamanouchi Co., Ltd.) was used as lactate. The detection of ADP and AMP was performed according to the method of Bergmeyer (Klin. Chem. Klin. Biochem., 1975, 13, p. 507). The energy charge (hereinafter referred to as "E.C.") which served as an indication of the degree of energy sufficiency due to high energy phosphoric acid of adenine nucleotide was calculated from the following relation according to the method of Atkinson (J. Biol. Chem., 1967, 242, p. 3329):
E.C.=(ATP+1/2ADP)/(ATP+ADP+AMP)
In the test, the compound to be tested was suspended in a 0.5% aqueous solution of methyl cellulose and was administered, through an oral route, to the animals to be tested 30 minutes before the ligation of the both common carotid arteries.

[3] = Water Maze-Learning Test after cerebral ischemia; type: in vivo, male SHR's (rat); settings: for Swimming Time, 3rd Session: **: P < 0.01 vs. Pathema Control (114.9 ± 16.93); for Swimming Time, 2nd Session: **: P < 0.01 vs. Pathema Control (130.0 ± 17.13); for Swimming Time, 1st Session: **: P < 0.01 vs. Pathema Control (167.5 ± 9.59)
Method: (§1) 25-Week-old male SHR's were fixed on the back thereof under anesthetization with 1.5% halothane anesthetic (70% N,O, 30% O2) and the neck thereof was subjected to a median incision. The cerebral ischemia was caused by immediately ligating the both common carotid arteries with,a silk fiber after a vinyl tube was attached to the artery and just before the recovery from the anesthetic state. 3.5 Hours after the ligation, the silk fiber was cut to again initiate the blood circulation. In the test, the compound to be tested was suspended in a 0.5% aqueous solution of methyl cellulose and was initially administered, through oral route, to the animals to be tested 30 minutes before the ligation of the common artery and thereafter it was continuously administered every day over 16 days through oral route provided that the compound was not administered during the behavioral pharmacologic tests of the animals and was administered after completion of the tests.
This water maze-learning test was initiated on 7th day after the cerebral ischemia condition was formed. A cylindrical water tank having a diameter of 1.2 m was filled with black water and the temperature thereof was maintained at 20±1° C. A platform which was submerged in the water to a depth of 2 cm and could not be externally seen through the water (hereinafter referred to as "platform") was placed at the central point existing between the center of the water tank and the wall thereof.
The water maze-learning test was performed once a day (one session) which was continuously performed over three days (three sessions). In the first session (1st day), the animal was allowed to freely swim in the water tank which was free of platforms, then a platform was positioned in the tank and the animal was allowed to learn the presence of the platform of refuge by placing the animal thereon for 30 seconds. The animal was released through four predetermined points on the wall of the water tank over four times and the total time (swimming time (sec)) required until the animal got on the platform over four trials was determined. After the four trials, the animal was again allowed to stand on the platform for […] and thus the first session was completed. In this respect, the maximum total time required over four trials was determined to be 180 seconds. […] The 2nd and 3rd sessions were performed under the same conditions used in the first session except that the test animal was not allowed to freely swim in the water tank prior to the initiation of the test. The spatial positions of the water tank and the platform in the laboratory were not changed at all during the water maze-learning test term.

[4] = Trial Passive Avoidance Training after cerebral ischemia; type: in vivo, male SHR's (rat); settings: for Reaction Latency: cut-off 300 s, **: P < 0.01 vs. Pathema Control (146.7 ± 30.42)
Method: as §1
As a testing apparatus, there was used a training box comprising a bright room whose floor was formed from grid, a dark room capable of applying footshock through the floor made of grid and a port opening equipped with a guillotine door disposed at the boundary of these rooms through which the animal could freely move between these two rooms. First, as an acquired trial, the rat was put in the bright room for 30 seconds while the guillotine door was closed, then the guillotine door was opened and the time required for the rat to enter into the dark room through the guillotine door was determined. […] After 24 hours, the rat was again put in the bright room, 30 seconds thereafter the guillotine door was opened and the time required for the animal to confirm the entrance and to enter into the dark room (the reaction latency) was determined. […]

[5] = tested on: Choline acetyltransferase (ChAT); assay: Activity of Choline acetyltransferase (ChAT) in the striatum after cerebral ischemia; type: in vivo, male SHR's (rat)
Method: as §1
After completion of the learning test, the rat was sacrificed by decapitation and the activity of ChAT which had been believed to be involved in the memory function of animals was determined. The brain tissues were homogenized in 0.05% Triton X-100 containing-phosphate buffer solution (pH 7.4) and the resulting supernatant was used as a sample for determining the ChAT activity. The activity of ChAT was determined according to the method of Fonnum (J. Neurochem., 1975,24, p. 407).

Acute toxicity, oral = settings: rat, in vivo, rats
From the text: The acute toxicity thereof was investigated by orally administering the compounds of Formula (I) to rats and they were confirmed to be highly safe.
Compound A was orally administered to rats to determine the acute toxicity thereof.

COc1ccc(OCCCN(C)CCOc2ccc3c(c2)OCO3)c(C2Sc3ccccc3N(C)C2=O)c1 (single isomer, unassigned; (+)) [Compound A, (+)-3,4-dihydro-2-(5-methoxy-2-(3-(N-methyl-N-[2-[(3,4]propoxy]phenyl]-4-methyl-3-oxo-2H-1,4-benzothiazine fumarate]
effect on survival time under low oxygen supply (in words) [1]: significant effect of extending survival time
Survival Time ([1]; 60 min before N2, average ± standard error, **: P < 0.01 vs. Control (25.8 ± 0.61)): 35.7 ± 1.28 s
Hippocampus E.C. (energy charge) ([2]; 10 mg/kg oral): 0.706 ± 0.025
Cerebral Cortex E.C. (energy charge) ([2]; 10 mg/kg oral): 0.705 ± 0.0237
Striatum E.C. (energy charge) ([2]; 10 mg/kg oral): 0.703 ± 0.025
reduction in the E.C. due to the ischemia (in words) ([2]; 10 mg/kg oral, cerebrum cortex and hippocampus): significantly improved
changes in the ATP and the lactate due to the ischemia (in words) ([2]; 25 mg/kg oral): significantly inhibited
effect on the ratio lactate/pyruvate (in words) ([2]; 25 mg/kg oral): substantially improved
ATP ([2]; 25 mg/kg oral, 30 min before 3.5 h ligation, average ± standard error, **: P < 0.01 vs. Pathema Control (10.0 ± 1.03)): 16.9 ± 0.87 n mole/mg Protein
Lactate/Pyruvate ([2]; 25 mg/kg oral, 30 min before 3.5 h ligation, average ± standard error, **: P < 0.01 vs. Pathema Control (40.3 ± 6.78)): 19.1 ± 2.71
Lactate ([2]; 25 mg/kg oral, 30 min before 3.5 h ligation, average ± standard error, **: P < 0.01 vs. Pathema Control (128.6 ± 15.84)): 62.3 ± 10.20 n mole/mg Protein
Hippocampus E.C. (energy charge) ([2]; 30 mg/kg oral): 0.762 ± 0.022
Cerebral Cortex E.C. (energy charge) ([2]; 30 mg/kg oral): 0.764 ± 0.0078
Striatum E.C. (energy charge) ([2]; 30 mg/kg oral): 0.768 ± 0.0063
reduction in the E.C. due to the ischemia (in words) ([2]; 30 mg/kg oral, cerebral cortex, hippocampus and striatum): completely inhibited
Swimming Time, 3rd Session ([3]; 10 mg/kg oral): 40.9 ± 11.82 s
Swimming Time, 2nd Session ([3]; 10 mg/kg oral): 61.4 ± 15.06 s
Swimming Time, 1st Session ([3]; 10 mg/kg oral): 105.8 ± 16.50 s
Swimming Time, 3rd Session ([3]; 30 mg/kg oral): 34.5 ± 3.60 s
Swimming Time, 2nd Session ([3]; 30 mg/kg oral): 59.6 ± 9.60 s
Swimming Time, 1st Session ([3]; 30 mg/kg oral): 97.2 ± 18.85 s
time required to reach the base (in words) ([3]; vs. pathema control group): significantly shorter
Reaction Latency ([4]; 10 mg/kg oral): 271.1 ± 19.21 s
Reaction Latency ([4]; 30 mg/kg oral): 280.8 ± 19.25 s
average reaction latency (in words) ([4]; vs. pathema control group): significantly longer
ChAT activity in the striatum ([5]; 10 mg/kg oral, *: P < 0.05 vs. Pathema Control (3.43 ± 0.097)): 3.84 ± 0.102 n mol/mg Protein
ChAT activity in the striatum ([5]; 30 mg/kg oral, **: P < 0.01 vs. Pathema Control (3.43 ± 0.097)): 3.94 ± 0.201 n mol/mg Protein
lowering of the activity of ChAT in the striatum due to the cerebral ischemia (in words) ([5]; rat, in vivo): inhibited
LD50 (Acute toxicity, oral): 293 mg/kg
